Measured values taken from patent US20110207811A1, “USE OF CELIVARONE FOR REDUCING OCCURRENCES OF CARDIOVASCULAR HOSPITALIZATION” (SANOFI-AVENTIS, priority 2010, published 2011).

Test system: ICD patients with a LVEF of 40% or less
Test: clinical study ALPHEE: prevention of cardiovascular hospitalization
Type: in vivo
Conditions: clinical trial using amiodarone as calibrator; oral, with a meal
Excerpt: The primary objective of the study is to assess the efficacy of celivarone for the prevention of ICD interventions or death. The study also aims at assessing the usefulness of celivarone for reducing occurrences of cardiovascular hospitalization in treated patients.
This is a dose-finding multicenter, multinational, randomized, double blind, placebo controlled, parallel arm study including a positive control calibrator arm. Patients are randomized to one of three doses of celivarone or placebo or to the amiodarone calibrator arm.
The efficacy of celivarone is based on data regarding appropriate ICD intervention obtained by regular ICD interrogation, performed as described below, as well as on data regarding death of the randomized patients, in particular sudden death, and on data regarding cardiovascular hospitalization occurrences.
The study includes a one week screening period, followed by a treatment period scheduled for a minimum duration of 6 months for the last patient recruited and going from the first day of treatment to the end of treatment visit to be done 10-15 days prior to the scheduled study end date. […]
Cardiovascular hospitalization is an hospitalization with a cardiovascular cause, as assessed by the investigator. […]

## CCCCc1oc2ccc(C(=O)OC(C)C)cc2c1C(=O)c1ccc(CCCN(CCCC)CCCC)cc1.O=C(O)/C=C/C(=O)O [celivarone, 2-butyl-3-[4-[3-(dibutylamino)propyl]benzoyl]-1-benzofuran-5-carboxylic acid isopropyl ester fumarate]
  prevention of cardiovascular hospitalization: effective
